How the values were obtained:
Design in all cases: scale not given: the % may be the effect or the level left
[1] = target: RAC-alpha serine/threonine-protein kinase (Homo sapiens) (UniProt P31749); assay: Inhibition of human AKT1 assessed as enzyme activity at 1 uM using KGSGSGRPRTSSFAEG as substrate preincubated for 20 mins followed by [gamma-33P]-ATP addition and measured after 120 mins by radiometric Hot-SpotSM Kinase assay relative to control
[2] = target: Tyrosine-protein kinase CSK (Homo sapiens) (UniProt P41240); assay: Inhibition of human CSK assessed as enzyme activity at 1 uM using poly[Glu:Tyr] (4:1) as substrate preincubated for 20 mins followed by [gamma-33P]-ATP addition and measured after 120 mins by radiometric Hot-SpotSM Kinase assay relative to control
Sequence of Tyrosine-protein kinase CSK (Homo sapiens) (P41240 2-450 limits assumed): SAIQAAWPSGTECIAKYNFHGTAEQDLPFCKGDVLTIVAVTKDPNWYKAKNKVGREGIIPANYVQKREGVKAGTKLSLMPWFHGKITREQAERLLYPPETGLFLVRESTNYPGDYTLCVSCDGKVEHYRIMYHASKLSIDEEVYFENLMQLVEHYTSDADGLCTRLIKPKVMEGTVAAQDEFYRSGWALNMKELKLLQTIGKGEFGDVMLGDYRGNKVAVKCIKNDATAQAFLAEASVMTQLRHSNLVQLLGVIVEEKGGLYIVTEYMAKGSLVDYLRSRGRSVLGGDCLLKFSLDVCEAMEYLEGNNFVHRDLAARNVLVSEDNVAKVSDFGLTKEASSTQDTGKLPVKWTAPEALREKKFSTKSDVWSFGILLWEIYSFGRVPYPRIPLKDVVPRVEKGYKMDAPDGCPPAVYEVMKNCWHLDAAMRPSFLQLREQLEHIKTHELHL

[3] = target: T1, Ephrin type-A receptor 6 (Homo sapiens) (UniProt Q9UF33); assay: Inhibition of human EPHA6 assessed as enzyme activity at 1 uM using poly[Glu:Tyr] (4:1) as substrate preincubated for 20 mins followed by [gamma-33P]-ATP addition and measured after 120 mins by radiometric Hot-SpotSM Kinase assay relative to control
T1 sequence (whole entry): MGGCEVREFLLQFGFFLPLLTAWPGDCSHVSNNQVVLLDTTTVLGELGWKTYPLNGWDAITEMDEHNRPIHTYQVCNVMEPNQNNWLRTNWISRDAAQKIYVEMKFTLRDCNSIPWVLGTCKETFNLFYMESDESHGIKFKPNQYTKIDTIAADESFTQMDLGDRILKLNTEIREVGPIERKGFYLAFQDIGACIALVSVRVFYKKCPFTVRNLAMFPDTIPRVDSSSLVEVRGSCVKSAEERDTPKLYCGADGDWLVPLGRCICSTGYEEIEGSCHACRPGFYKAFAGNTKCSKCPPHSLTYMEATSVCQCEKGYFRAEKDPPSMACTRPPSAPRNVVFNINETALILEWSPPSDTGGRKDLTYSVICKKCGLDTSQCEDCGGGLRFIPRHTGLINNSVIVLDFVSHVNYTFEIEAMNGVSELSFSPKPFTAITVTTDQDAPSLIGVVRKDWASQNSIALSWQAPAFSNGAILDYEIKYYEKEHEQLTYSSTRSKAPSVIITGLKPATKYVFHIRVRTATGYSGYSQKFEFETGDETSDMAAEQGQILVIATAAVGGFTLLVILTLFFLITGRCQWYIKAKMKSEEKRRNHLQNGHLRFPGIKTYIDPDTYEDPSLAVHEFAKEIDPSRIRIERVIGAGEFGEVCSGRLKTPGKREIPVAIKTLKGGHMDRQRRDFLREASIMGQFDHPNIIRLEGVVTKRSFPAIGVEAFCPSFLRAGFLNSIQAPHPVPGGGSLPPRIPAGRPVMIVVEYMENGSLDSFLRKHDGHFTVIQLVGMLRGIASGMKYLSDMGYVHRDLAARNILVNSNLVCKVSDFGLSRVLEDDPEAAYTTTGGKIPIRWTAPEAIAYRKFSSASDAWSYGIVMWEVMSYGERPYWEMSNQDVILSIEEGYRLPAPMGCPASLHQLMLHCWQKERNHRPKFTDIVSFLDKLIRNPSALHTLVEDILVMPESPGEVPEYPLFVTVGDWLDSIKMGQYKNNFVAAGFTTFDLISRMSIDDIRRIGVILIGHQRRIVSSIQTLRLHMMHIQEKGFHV

[4] = target: MAP kinase-activated protein kinase 3 (Homo sapiens) (UniProt Q16644); assay: Inhibition of human MAPKAPK3 assessed as enzyme activity at 1 uM using KKLNRTLSVA as substrate preincubated for 20 mins followed by [gamma-33P]-ATP addition and measured after 120 mins by radiometric Hot-SpotSM Kinase assay relative to control
Sequence of MAP kinase-activated protein kinase 3 (Homo sapiens) (Q16644 whole entry, looked up): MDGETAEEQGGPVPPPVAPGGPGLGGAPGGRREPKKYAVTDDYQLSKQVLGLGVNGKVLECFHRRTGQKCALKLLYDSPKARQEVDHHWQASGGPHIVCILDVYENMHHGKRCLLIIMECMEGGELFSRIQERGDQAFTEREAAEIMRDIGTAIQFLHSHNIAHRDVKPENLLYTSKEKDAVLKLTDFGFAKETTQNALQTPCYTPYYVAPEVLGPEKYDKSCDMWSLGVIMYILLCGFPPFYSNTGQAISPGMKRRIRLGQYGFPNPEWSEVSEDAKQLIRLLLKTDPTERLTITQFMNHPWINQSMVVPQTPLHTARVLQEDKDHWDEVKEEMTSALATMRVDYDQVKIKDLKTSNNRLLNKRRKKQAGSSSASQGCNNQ

[5] = target: T2, Protein kinase C epsilon type (Homo sapiens) (UniProt Q02156); assay: Inhibition of human PKCepsilon assessed as enzyme activity at 1 uM using ERMRPRKRQGSVRRRV as substrate preincubated for 20 mins followed by [gamma-33P]-ATP addition and measured after 120 mins by radiometric Hot-SpotSM Kinase assay relative to control
T2 sequence (whole entry): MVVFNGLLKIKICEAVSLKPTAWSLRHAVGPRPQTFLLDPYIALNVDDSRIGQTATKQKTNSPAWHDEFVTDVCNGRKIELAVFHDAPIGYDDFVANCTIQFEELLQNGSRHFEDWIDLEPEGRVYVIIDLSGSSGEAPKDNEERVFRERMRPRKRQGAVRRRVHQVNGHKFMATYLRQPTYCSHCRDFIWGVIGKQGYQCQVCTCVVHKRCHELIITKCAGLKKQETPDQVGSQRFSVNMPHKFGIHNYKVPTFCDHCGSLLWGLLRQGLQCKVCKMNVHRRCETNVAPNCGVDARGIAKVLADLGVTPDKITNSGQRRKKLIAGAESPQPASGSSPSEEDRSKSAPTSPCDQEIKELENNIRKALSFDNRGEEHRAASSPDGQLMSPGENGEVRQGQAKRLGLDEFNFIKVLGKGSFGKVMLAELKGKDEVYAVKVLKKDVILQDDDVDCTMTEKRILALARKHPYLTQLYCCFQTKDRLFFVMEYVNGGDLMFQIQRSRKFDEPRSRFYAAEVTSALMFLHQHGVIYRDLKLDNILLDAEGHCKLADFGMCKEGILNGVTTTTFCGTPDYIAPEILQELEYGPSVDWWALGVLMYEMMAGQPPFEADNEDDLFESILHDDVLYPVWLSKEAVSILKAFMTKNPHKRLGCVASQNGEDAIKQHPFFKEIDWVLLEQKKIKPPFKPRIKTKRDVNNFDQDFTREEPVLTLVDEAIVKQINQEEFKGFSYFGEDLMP

Sequence of RAC-alpha serine/threonine-protein kinase (Homo sapiens) (P31749 whole entry): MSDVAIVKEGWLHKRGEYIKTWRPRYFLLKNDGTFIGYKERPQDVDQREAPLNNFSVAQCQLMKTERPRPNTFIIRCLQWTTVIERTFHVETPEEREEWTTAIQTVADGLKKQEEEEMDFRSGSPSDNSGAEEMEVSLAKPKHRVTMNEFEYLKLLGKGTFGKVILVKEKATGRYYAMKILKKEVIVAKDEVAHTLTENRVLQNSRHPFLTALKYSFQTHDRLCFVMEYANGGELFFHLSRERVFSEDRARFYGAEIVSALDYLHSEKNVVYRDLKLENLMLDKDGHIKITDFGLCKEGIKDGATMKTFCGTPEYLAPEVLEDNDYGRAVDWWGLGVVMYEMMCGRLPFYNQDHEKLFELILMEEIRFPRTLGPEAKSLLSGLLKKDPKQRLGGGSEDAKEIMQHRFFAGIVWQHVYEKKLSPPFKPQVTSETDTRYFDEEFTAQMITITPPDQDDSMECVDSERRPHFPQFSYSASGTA

## C[C@H](Nc1ncnc2nc[nH]c12)c1cc2cccc(Cl)c2c(=O)n1-c1ccccc1
[1]
  Activity: 99.6%
[2]
  Activity: 97.9%
[3]
  Activity: 86.9%
[4]
  Activity: 95.8%
[5]
  Activity: 107%

## CC[C@H](Nc1ncnc2[nH]cnc12)c1nc2cccc(F)c2c(=O)n1-c1ccccc1
[1]
  Activity: 99%
[2]
  Activity: 99.1%
[3]
  Activity: 87.7%
[4]
  Activity: 97.3%
[5]
  Activity: 108%

## CC(C)Oc1ccc(-c2nn([C@@H](C)c3oc4ccc(F)cc4c(=O)c3-c3cccc(F)c3)c3ncnc(N)c23)cc1F [UMBRALISIB]
[1]
  Activity: 93.3%
[2]
  Activity: 94.1%
[3]
  Activity: 81.3%
[4]
  Activity: 90.6%
[5]
  Activity: 109%

Reference: ChEMBL document CHEMBL5715954, “Silencing c-Myc translation as a therapeutic strategy through targeting PI3Kδ and CK1ε in hematological malignancies” (Blood, 2017)
